The record followed here is PubChem BioAssay AID1990 (Broad Institute, 2009).

The target of the experiment is Luciferin 4-monooxygenase (Photinus pyralis) (UniProt P08659). Briefly: Photinus pyralis luciferase inhibitors, H4 neuroglioma cells, confirmatory dose response, luminescence (AID 1990).

Each structure is given as a SMILES string. Records with an inconclusive call do not appear. Active and inactive are the calls of the source. No rule for the calls is given here.

Sequence of Luciferin 4-monooxygenase (Photinus pyralis) (P08659 whole entry, looked up): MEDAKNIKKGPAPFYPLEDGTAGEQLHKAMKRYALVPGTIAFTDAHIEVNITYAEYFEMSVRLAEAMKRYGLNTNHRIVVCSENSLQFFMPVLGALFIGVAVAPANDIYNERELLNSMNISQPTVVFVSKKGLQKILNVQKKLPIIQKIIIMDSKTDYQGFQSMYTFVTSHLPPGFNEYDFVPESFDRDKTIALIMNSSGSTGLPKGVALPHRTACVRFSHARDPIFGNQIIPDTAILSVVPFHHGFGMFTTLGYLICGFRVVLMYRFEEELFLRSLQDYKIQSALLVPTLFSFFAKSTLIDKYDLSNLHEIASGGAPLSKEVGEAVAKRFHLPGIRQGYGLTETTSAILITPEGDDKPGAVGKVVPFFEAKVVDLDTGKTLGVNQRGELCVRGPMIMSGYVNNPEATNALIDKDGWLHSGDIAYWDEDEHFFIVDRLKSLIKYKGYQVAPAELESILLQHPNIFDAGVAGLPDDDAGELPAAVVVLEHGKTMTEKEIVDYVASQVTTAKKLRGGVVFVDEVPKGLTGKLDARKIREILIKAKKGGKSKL

As for `COc1ccc(O)c2c(=O)c3c(OC)cc4c(c3oc12)C1C=COC1O4` (stereo not drawn), the 50% effective concentration (EC50) is less than 0.1 µM.
With `C=C(C=O)CC1CC(O)[C@]2(C)OC3CC4OC5C[C@]6(C)O[C@]7(C)CCC8OC9C[C@]%10(C)OC%11C(C)=CC(=O)OC%11CC%10OC9C[C@@H](C)C8OC7CC6O[C@]5(C)CC5OC5C4OC3CC2O1` (stereo partly drawn) the figure was > 12 µM (inactive); with `C#CCOCCOCCOCCNc1nc(N2CCN(C(=O)CCCCCCCCCCNC(=O)[C@H](CO)n3cc(CCCSC)nn3)CC2)nc(N2CCN(C(=O)CCCCCCCCCCNC(=O)[C@H](CCCCN)n3cc(C[C@@H](C)CC)nn3)CC2)n1`, 7.24 µM.

In general, EC50 refers to the concentration needed to bring the measured effect to its halfway point.
